This is an account of results in a melting point compilation (Tetko et al.; mined from patent text by program, amines drawn as free bases though some values may be those of a salt).

Each structure is given as a SMILES string.

Broadly, the melting point is the temperature of the solid-liquid transition.

`CCc1cc2c(s1)-n1c(C)nnc1C(CCCCC(=O)O)N=C2c1ccc(Cl)cc1` (stereo not given) displayed a melting point of 257 to 260 °C. With `COc1cc(OC)nc(-n2c(OC)nc3ccccc32)n1`, the melting point lay in the range of 121 to 122 °C. The result for `CCCc1c(SCCCCSc2nc3ccc(C(=O)O)cc3[nH]2)ccc(C(C)=O)c1O` reads 90 to 95 °C; that for `COC(=O)c1c(Sc2ccc(OC)cc2)nc(-c2ccccc2)n1Cc1cc2c(cc1Cl)OCO2`, 161 °C. `CC(Cl)(Cl)C(NC(=O)c1cccc(Cl)c1)Nc1c(Nc2cccnc2)c(=O)c1=O` (stereo not given): the melting point lay within 202 to 204 °C. Compound `Cc1ccc(C(=O)Nc2ccc(-n3nc(C(F)(F)F)cc3C(F)(F)F)cc2)s1` registered a melting point of 200 to 202 °C.

In the case of `N#Cc1cc(C#N)cc(C=O)c1`, the melting point lay in the range of 203 to 204 °C.

In turn, `NCCc1c[nH]c2ccc(Cc3ccccc3)cc12` gave a melting point of 150 to 153 °C.

For `CS(=O)(=O)NCc1ccc(-n2c(-c3cccnc3N)nc3cc(-c4cccnc4)cnc32)cc1`, the melting point is 127 to 129 °C.

Compound `Nc1ncc(Oc2ccc(Cl)cc2)c(N2CCOCC2)n1` showed a melting point of 138 to 140 °C.

In the case of `COc1cc(C(=O)c2ncc3ccc(N)cn23)ccc1[N+](=O)[O-]`, the melting point turned out to be 252 °C. Compound `COc1cc(O)c2c(c1O)C1C=CC2C1` (stereo not given) registered a melting point of 151 to 153 °C.

For the compound `Cc1ccc(-c2c(C(=O)O)oc(=O)c3cnccc23)cc1`, the melting point was in the range of 254 to 256 °C.

Compound `O=C1C(c2cccc(Br)c2)n2cncc2CN1Cc1ccccn1` (stereo not given) had a melting point of 52 to 56 °C.

In the case of `Cn1cc(S(C)=O)c(=O)c2ccc(F)cc21` (stereo not given), the melting point lay within 226 to 228 °C.

With `O=C1CN=C(c2ccccc2Cl)c2ccsc2N1`, the melting point was in the range of 221 to 223 °C. `COc1ccc(C(=O)Nc2nc(-c3ccco3)c(-c3ccncc3)s2)cc1` yielded a melting point of 235 to 245 °C.

Compound `CN(C)C1(c2ccc(F)cc2)CCC(=O)CC1` showed a melting point of 128 to 133 °C. In turn, `CC(=O)N1CCC(=O)C(C2c3ccccc3CCc3ccccc32)C1` (stereo not given) registered a melting point of 107 to 109 °C.

Regarding `Cc1nc(Cl)c2c(n1)CN=C(c1ccccc1)c1cc(Cl)ccc1-2`, the melting point lay within 190 to 192 °C. In turn, `CCOc1nc2nc(C(OC(C)=O)C3(Br)C(=O)N4C(C(=O)OCc5ccc([N+](=O)[O-])cc5)=CSC43)cn2c2c1CCC2` (stereo not given) came in with a melting point of 119 °C. In turn, `COc1c(C)c2c(c(OS(=O)(=O)c3ccc(C)cc3)c1CC=C(C)C=O)C(=O)OC2` registered a melting point of 168 to 173 °C. Regarding `COc1ccc(C#Cc2ccc(OC3CN4CCC3CC4)nn2)cc1` (stereo not given), the melting point fell in the range of 163 to 165 °C. Take `O=C(Nc1cccc(-c2c(-c3ccccc3)cnc3c(C(F)(F)F)cccc23)c1)Nc1ccccc1Cl`: the melting point lay within 192 to 195 °C.

Take `Cc1ccc2c(c1)OC1(O)c3ccccc3C(=O)C21O` (stereo not given): the melting point lay in the range of 145 to 147 °C. The value for `Cc1nn(-c2cccc(C(F)(F)F)c2)c(C)c1CC(=O)O` was 83 to 85 °C. For `CCNc1c(C(=O)OCC)c(C)nc2nccnc12`, the melting point lay within 72 to 74 °C. Regarding `C[C@H]1C(=O)Nc2c(N)cc(Cl)cc2N1C(=O)OCc1ccccc1`, the melting point is 152 to 154 °C.

Compound `C=CCCCCCCOc1ccc(CCC(NC(C)=O)(C(=O)OCC)C(=O)OCC)cc1` registered a melting point of 50 to 53 °C. `c1ccc(C(N=C2CCCCC2)c2ccccc2)cc1` gave a melting point of 71 to 72 °C.

`CCc1cc(-c2ccc(F)cc2)c(O)cc1OCCCOc1cccc(Oc2ccccc2C(=O)O)c1CC(C)C` came in with a melting point of 48 to 49 °C.

`COc1ccc(NC(=O)Cc2ccc(Cl)cc2)c(OC)c1` returned a melting point of 134 to 135 °C. `CNC(=O)NCCCn1cc(Cn2ccnc2)c2ccccc21` came in with a melting point of 123 to 124 °C. The compound `CCOC=Nc1c(SC(F)(F)F)c(C#N)nn1-c1c(Cl)cc(C(F)(F)F)cc1Cl` displayed a melting point of 68 °C. For `CC(C)Cc1nnc2n1-c1ccc(Br)cc1C(c1ccccc1)=NC2`, the melting point was 93 to 95 °C.
